Measured values taken from patent US12660818B2, “Strigolactone analogs and methods of using” (King Abdullah University of Science and Technology, priority 2019, dated 2026).
Read-outs that look alike come from different tables or passages of the source.

What was measured:
[1] = system: SL insensitive d3 rice mutant; experiment: Rice micro tillering bioassay, SL insensitive d3 mutant; assay type: in vivo; conditions: 2.5 μM, three weeks, no effect of treatment
Method: (§1) After sterilization with 50% sodium hypochlorite, rice seeds (d10/CCD8 and d3 mutants) were germinated on moist filter paper in the dark at 30° C. The germinated seeds were then transferred to light in a growth cabinet with fluorescent white light (130-180 μM m^−2 s^−1) at 30° C. for seven days. One-week old rice seedlings were shifted to 50 ml falcon tubes (one seedling per tube) filled with half-strength modified Hoagland nutrient solution. The tubes with rice seedlings were kept in green house to grow at 30° C. and 70% humidity. After one week, the rice seedlings were treated with 2.5 μM of each SL analog. Mock and GR24 (2.5 μM) were included as control treatments. Each of the SL analogs (MPs 16-18 and 21-25) was applied twice per week up to three weeks. Number of tillers per plant, plant height and dry biomass were measured after three weeks of SL analogs application at final harvest.
(§2) Standard procedure was adopted to collect data for each trait, which were analyzed statistically using statistical software package R (version 3.2.2). One-way analysis of variance (ANOVA) and LSD (Least significant difference) multiple range test were applied to investigate the effect of various SL analogs (MPs 16-18 and 21-25) for various parameters. Half Maximum Effective Concentration (EC50) was calculated using IC50 toolkit (http://www.ic50.tk/index.html).

[2] = system: rice (cv IAC-165) leaf segments; experiment: Dark-induced leaf senescence of rice leaf segments; conditions: 3.0 μM; for ion leakage (loss of membrane integrity): continued to increase till day 6; for chlorophyll content: third and fourth day of treatment
Method: Rice seeds (cv IAC-165) were surface sterilized with 50% sodium hypochlorite solution and 0.05% Tween-20, and germinated on moist filter paper in the sealed petri plates. The petri plates with germinated seeds were transferred to white fluorescent light (130-180 μM m^−2 s^−1) with 16 h:8 h (L/D) at 28° C., to establish seedlings for one week. Seven days old uniform seedlings were selected and transferred to 50 ml tubes containing half strength modified Hoaglands nutrient solution. After one week, 2 cm leaf segments were cut from middle part of third leaves of rice plants. Each segment was put in a well (in 12-well plates) containing 4 ml of 3.0 mM MES buffer with 0.05% Tween-20. MP16 and GR24 were applied at 3.0 μM concentration. Plates were incubated at 30° C. in the dark for 7 days. After application of MP16 and GR24, plates were monitored on a daily basis and changes in leaf color, chlorophyll content and ion leakage were monitored.

S. hermonthica seeds [3] = experiment: Parasitic seed germination bioassay, Striga; assay type: in vivo, Striga hermonthica; conditions: for Striga germination rate / Striga germination rate (comparison in words): 2.5 μM; for Striga germination rate: 24 h at 30° C. in dark; for EC50: 10^−5M to 10^−12M
Method: as §2
(§3) Seeds of the two root parasitic species S. hermonthica and P. aegyptiaca were tested for germination in response to MP compounds application. After pre-conditioning, as previously described (Jamil et al., 2012), Striga and Phelipanche seeds were first tested with each MP solutions at 2.5 μM concentration (55 μl per disc) and then at a concentration range from 10^−5M to 10^−12M, to calculate EC50. Sterile MilliQ water and GR24 were applied as a negative and a positive control, respectively. Treated seeds were incubated in dark for 24 h at 30° C. (for S. hermonthica) and for one week at 25° C. (for P. aegyptiaca). Germination was recorded under a binocular microscope and used to determine the germination rate (%).

P. aegyptiaca seeds = experiment: Parasitic seed germination bioassay, Phelipanche; assay type: in vivo, Phelipanche aegyptiaca; conditions: 2.5 μM; for Phelipanche aegyptiaca germination rate: one week at 25° C. in dark
Method: as §3

ShHTL7 = ShHTL7 (Striga hermonthica, UniProt A0A0M3PNA2); experiment: In vitro YLG (Yoshimulactone Green) hydrolysis competition assay with ShHTL7; assay type: biochemical; conditions: competition with 1.0 μM YLG, 60 min, room temperature
Method: (§4) Purification of ShHTL7/OsD14 was carried out by adopting the procedure explained previously (Jamil et al., 2018). In vitro YLG hydrolysis assays were conducted as described before (Tsuchiya et al., 2015). About 3.0 μM of purified ShHTL7/OsD14 protein was used in a reaction buffer (1×PBS buffer, pH 7.3) with 0.1% dimethyl sulfoxide (DMSO) at a 100 μl volume on a 96-well black plate (Greiner). SL analogs (at range between 0.01 to 50 μM) were co-incubated with 1.0 μM of YLG (Tokyo Chemical Industry Co. Ltd., product number E1238) for 60 min at room temperature. In this competition assay, fluorescent intensity was measured by spectraMax i5 (Molecular Devices) at excitation at 480 nm and detection at 520 nm. The variation in fluorescence recorded over the course of 1 h of YLG incubation in protein-free buffer was subtracted from the data collected in presence of protein. IC50 values were calculated by using Quest Graph™ IC50 Calculator.

OsD14 = biological target: T1, OsD14 (Oryza sativa subsp. japonica, UniProt Q10QA5); experiment: In vitro YLG (Yoshimulactone Green) hydrolysis competition assay with OsD14; assay type: biochemical, rice
T1 construct: made in house
T1 sequence (Q10QA5 1-318): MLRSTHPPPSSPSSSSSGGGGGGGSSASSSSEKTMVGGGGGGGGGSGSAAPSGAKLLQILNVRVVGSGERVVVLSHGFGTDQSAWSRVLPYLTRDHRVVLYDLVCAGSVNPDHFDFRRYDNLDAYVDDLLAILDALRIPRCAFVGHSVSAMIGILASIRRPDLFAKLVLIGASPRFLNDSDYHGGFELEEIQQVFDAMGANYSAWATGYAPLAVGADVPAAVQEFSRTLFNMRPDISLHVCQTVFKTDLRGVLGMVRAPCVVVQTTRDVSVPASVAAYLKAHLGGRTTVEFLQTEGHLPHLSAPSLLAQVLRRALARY
Method: as §4

S. hermonthica seeds [4] = conditions: previously described MPs, cited from earlier work
[5] = Chemical stability in aqueous solution monitored by HPLC/UPLC; assay type: physicochemical; conditions: aqueous solution pH 5.5-6.0, 21±1° C., HPLC, up to 3 weeks
Method: Three selected MPs (MP16, MP18, MP21) and rac-GR24 were tested for their chemical stability at 21±1° C. in aqueous solution with a pH of 5.5-6.0, as described previously (Jamil et al., 2018). Compound solution (1 mg ml^−1) was prepared with […] and 750 μl Mili-Q water. Thereafter, 25 μl Indanol (1 mg ml^−1, internal standard) was spiked in 975 μl previous prepared solution. The time course of degradation was monitored in about 50 μl aliquots by UPLC analysis using an Agilent HPLC ZORBAX Eclipse XDB-C18 column ([…], 4.6×150 mm) eluted first by 5% acetonitrile in water for 0.5 min then by a gradient from 5% to 100% acetonitrile within 18 min in water, and finally by 100% acetonitrile for 5 min. The column was operated at 40° C. at […] flow rate. Compounds eluted from the column were detected with a photodiode array detector, and the relative quantity of non-degraded amount was calculated using Indanol as internal standard. Stability was monitored at 24 h intervals up to 3 weeks.

[6] = system: SL deficient d10/CCD8 rice mutant; experiment: Rice micro tillering bioassay, SL deficient d10/CCD8 mutant; assay type: in vivo; conditions: 2.5 μM
Method: as §1, §2

ShHTL7, sequence (A0A0M3PNA2 entry or part of it): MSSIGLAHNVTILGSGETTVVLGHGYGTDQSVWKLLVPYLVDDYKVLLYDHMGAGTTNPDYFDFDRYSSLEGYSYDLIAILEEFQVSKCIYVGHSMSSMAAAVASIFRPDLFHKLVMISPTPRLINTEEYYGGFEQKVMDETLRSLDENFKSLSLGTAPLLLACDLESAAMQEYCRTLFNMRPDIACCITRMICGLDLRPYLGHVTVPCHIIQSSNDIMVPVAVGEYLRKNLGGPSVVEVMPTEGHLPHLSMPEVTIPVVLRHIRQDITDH

CC1=C[C@H](O/C=C2/C(=O)O[C@@H]3c4ccccc4C[C@H]23)OC1=O [GR24, reference compound]
number of tillers per plant [1]: 4 | loss of the green color of leaf segments (time) ([2]; dark, 30° C., one day earlier than mock control): on the third day after application | ion leakage (loss of membrane integrity) ([2]; dark): began to increase on the third day of treatment | chlorophyll content [2]: significant reduction | Striga germination rate (S. hermonthica seeds [3]): 72% | EC50 (S. hermonthica seeds [3]): 0.0723 nM | Phelipanche aegyptiaca germination rate (P. aegyptiaca seeds): 43% | IC50 (ShHTL7): 980 ± 260 nM | IC50 (OsD14; competition with 1.0 μM YLG, 60 min, room temperature, read-out: IC50, OsD14-mediated YLG hydrolysis): 1040 ± 90 nM

COC(=O)/C(=C/OC1C=C(C)C(=O)O1)c1ccc([N+](=O)[O-])cc1 (centres unmarked) [MP1]
EC50 relative to that of GR24 (Jamil et al., 2018) (S. hermonthica seeds [4]): about 17 times | EC50 (S. hermonthica seeds [4]; read-out: EC50 (Striga seed germination, Jamil et al., 2018)): 1.5 nM

CC1=CC(O/C=C(\C(=O)N(C)C)c2ccccc2)OC1=O (centres unmarked) [MP16, (Z)—N,N-Dimethyl-3-((4-methyl-5-oxo-2,5-dihydrofuran-2-yl)oxy)-2-phenylacrylamide]
stability (relative amount of non-degraded compound) compared to GR24 [5]: in the range of that of GR24 | tillering inhibition (in words) ([6]; d10 mutant, compared to mock treatment): more effective compared with MPs 19 and 20 | effect on growth, biomass and plant height ([6]; rice seedlings, compared with GR24): stunted growth and triggered senescence in rice seedlings, leading to reduced biomass and plant height | ion leakage (loss of membrane integrity) ([2]; dark): began to increase on the third day of treatment | chlorophyll content [2]: significant reduction | Striga germination rate (comparison in words) (S. hermonthica seeds [3]): higher than MPs 19 and 20 | Striga germination rate (S. hermonthica seeds [3]): 62% | EC50 (S. hermonthica seeds [3]; Striga hermonthica): 0.105 nM | EC50 compared with MPs 19 and 20 (S. hermonthica seeds [3]; Striga seed germination): lower EC50 than MPs 19 and 20 | EC50 relative to that of GR24 (S. hermonthica seeds [3]; Striga seed germination): less than two times higher | Phelipanche aegyptiaca germination rate (P. aegyptiaca seeds): around 51% | IC50 (ShHTL7): 4370 ± 210 nM | IC50 (OsD14): 3070 ± 540 nM

CC1=CC(O/C=C(/C(=O)OCc2ccccc2)c2ccccc2)OC1=O (centres unmarked) [MP21, (E)-Benzyl 3-((4-methyl-5-oxo-2,5-dihydrofuran-2-yl)oxy)-2-phenylacrylate]
stability (relative amount of non-degraded compound) compared to GR24 [5]: higher degradation rate, compared to GR24 | EC50 compared with MPs 19 and 20 (S. hermonthica seeds [3]; Striga seed germination): lower EC50 than MPs 19 and 20 | Phelipanche seed germination (comparison in words) (P. aegyptiaca seeds): lower activity

CC1=CC(O/C=C(/C(=O)Oc2cccc(Cl)c2)c2ccccc2)OC1=O (centres unmarked) [MP22, (E)-3-Chlorophenyl 3-((4-methyl-5-oxo-2,5-dihydrofuran-2-yl)oxy)-2-phenylacrylate]
Phelipanche seed germination (comparison in words) (P. aegyptiaca seeds): lower activity

CC1=CC(O/C=C(/C(=O)OCC(C)C)c2ccccc2)OC1=O (centres unmarked) [MP19, reference compound]
Phelipanche seed germination (comparison in words) (P. aegyptiaca seeds): comparable germination rate as MPs 16 and 18

CC1=CC(O/C=C(/C(=O)OCc2ccccc2)c2ccccc2)OC1=O (centres unmarked) [MP18, (E)-Benzyl 3-((4-methyl-5-oxo-2,5-dihydrofuran-2-yl)oxy)-2-phenylacrylate]
stability (relative amount of non-degraded compound) compared to GR24 [5]: in the range of that of GR24 | Striga germination rate (comparison in words) (S. hermonthica seeds [3]): lower germination rate | EC50 (S. hermonthica seeds [3]; Striga hermonthica): 6.44 nM | EC50 compared with MPs 19 and 20 (S. hermonthica seeds [3]; Striga seed germination): lower EC50 than MPs 19 and 20 | Phelipanche aegyptiaca germination rate (P. aegyptiaca seeds): around 51%

CC1=CC(O/C=C(/C(=O)Oc2ccc(C)cc2)c2ccccc2)OC1=O (centres unmarked) [MP24, (E)-p-Tolyl 3-((4-methyl-5-oxo-2,5-dihydrofuran-2-yl)oxy)-2-phenylacrylate]
Phelipanche seed germination (comparison in words) (P. aegyptiaca seeds): lower activity

CC1=CC(O/C=C(/C(=O)Oc2cccc3ccccc23)c2ccccc2)OC1=O (centres unmarked) [MP25, (E)-naphthalen-1-yl 3-((4-methyl-5-oxo-2,5-dihydrofuran-2-yl)oxy)-2-phenylacrylate]
Phelipanche seed germination (comparison in words) (P. aegyptiaca seeds): lower activity

CC1=CC(O/C=C(/C(=O)Oc2ccccc2)c2ccccc2)OC1=O (centres unmarked) [MP17, (E)-Phenyl 3-((4-methyl-5-oxo-2,5-dihydrofuran-2-yl)oxy)-2-phenylacrylate]
Striga germination rate (comparison in words) (S. hermonthica seeds [3]): lower germination rate | EC50 (S. hermonthica seeds [3]; Striga hermonthica): 4350 nM
